Data from paper PMC10303900, “Discovery of a New Chalcone-Trimethoxycinnamide Hybrid with Antimitotic Effect: Design, Synthesis, and Structure—Activity Relationship Studies” (Pharmaceuticals, 2023).
Read-outs that look alike come from different tables or passages of the source.

Experiments:
HCT116 p53−/− = test: SRB growth inhibition assay, p53 knocked-out colorectal cells; assay type: cell-based, human
Description: (§1) A total of 5.0 × 10^4 A375-C5, MCF-7, and HCT-116 cells, or 6.0 × 10^4 HPAEpiC cells were seeded in 96-well plates and incubated at 37 °C and 5% CO2 to allow for cell attachment. After 24 h, cells were treated with two-fold serial dilutions of test compounds (0–150 µM), or with DMSO as the compound solvent. In parallel, cells in a time-zero (T0) plate, without treatment, were fixed with 50% (m/v) trichloroacetic acid (TCA, Merck Millipore, Darmstadt, Germany), for 1 h at 4 °C, and then washed with distilled water and left to dry. Forty-eight hours after compound treatment, cells were fixed with 50% TCA and stained with SRB (Sigma-Aldrich Co., Ltd., Gillingham, UK) for 30 min at room temperature, followed by 5 rounds of washing with 1% (v/v) acetic acid (Merck Milli-pore, Darmstadt, Germany). SRB–protein complexes were then solubilized with […] Tris buffer (Sigma-Aldrich Co., Ltd., Gillingham, UK) for 30 min, and the absorbance was measured at 515 nm in a microplate reader (Biotek Synergy 2, BioTek Instruments, Inc., Winooski, VT, USA). A dose-response curve was obtained for each cell line, and the concentration that caused 50% cell growth inhibition (GI50) was calculated.

A375-C5 = test: Sulforhodamine B (SRB) growth inhibition assay, melanoma cells; assay type: cell-based; conditions: Homo sapiens, 48 h
Description: (§2) A sulforhodamine B (SRB) assay was performed to evaluate the in vitro growth inhibitory activity of all synthesized hybrids, as well as intermediates in the human tumor cell lines of melanoma (A375-C5), breast adenocarcinoma (MCF-7), and colorectal carcinoma (HCT116), as well as on the non-tumor Human Pulmonary Alveolar Epithelial cell line (HPAEpiC). The concentration inducing 50% cell growth inhibition (GI50), was calculated. […] The overall results prompt us to further investigate the mechanism behind the cytotoxic activities of compounds 6, 7, and 13 in colorectal tumor cells. Moreover, in silico studies were performed, aiming to screen for drug-likeness.
(§3) A375-C5 (melanoma) and MCF-7 (breast adenocarcinoma) cell lines were obtained from the European Collection of Cell Culture, UK, and were grown in RPMI-1640 medium (Roswell Park Memorial Institute, Biochrom, Cambridge, UK) with 5% inactivated FBS (fetal bovine serum, Biochrom). HCT-116 (colon adenocarcinoma) cells were grown in DMEM medium (Dulbecco’s Modified Eagle’s, Biochrom) with 5% inactivated FBS. The non-tumor human pulmonary alveolar epithelial cells (HPAEpiC) were obtained from ScienCell Research Laboratories and grown in DMEM medium supplemented with 10% FBS and 1% non-essential amino acids (Sigma-Aldrich Co., Saint Louis, MO, USA). All cell lines were maintained in a humidified incubator (Hera Cell, Heraeus, Hanau, Germany) at 37 °C and with 5% CO2, and cell viability was regularly monitored using the exclusion trypan blue dye.
as §1

MCF-7 = test: SRB growth inhibition assay, breast adenocarcinoma cells; assay type: cell-based; conditions: Homo sapiens, MCF7, 48 h
Description: as §2, §3, §1

HCT116 cells [1] = test: Mitotic arrest / mitotic index by phase-contrast microscopy; assay type: cell-based, human; conditions: HCT116, 24 h
Description: Disruption of cell cycle progression is considered one of the most common cytotoxic mechanisms of anticancer drugs. Moreover, the antimitotic effect of BP-M345 (2) has been previously reported. Therefore, compounds 6, 7, and 13 were tested for their capability to induce cell cycle arrest. HCT116 cells were exposed for 24 h to the compounds and then analyzed using phase contrast microscopy for morphological changes. Untreated and dimethyl sulfoxide (DMSO; solvent)-treated cells were used as negative controls. Cell exposure to nocodazole, an antimitotic agent, was used as a positive control. […] We thus calculated the mitotic index (MI), and observed a significant increase in MI in 7-treated cells (22.76 ± 4.30%) compared to the untreated (12.68 ± 1.98%) or DMSO-treated (12.81 ± 1.45%) (Figure 4c).
A total of 1.2 × 10^5 HCT-116 cells were grown in six-well dishes and treated for 24 h with 3.26 µM of compound 7. Cells treated with 1 µM nocodazole were used as a positive control for antimitotic activity. Untreated cells and cells treated with DMSO were included to exclude the cytotoxicity of the compound solvent. Mitotic index, and the percentage of mitotic cells over the total cell population were determined via cell-rounding under phase-contrast microscopy from at least ten random microscope fields.
For phase contrast microscopy images, a Nikon TE 2000-U microscope (Nikon, Amsterdam, The Netherlands) with a 10× objective was used, coupled to a DXM1200F digital camera with Nikon ACT-1 software (Melville, NY, USA). For fluorescence images, an Axio Observer Z.1 SD microscope (Carl Zeiss, Germany) was used, coupled to an AxioCam MR3, with the Plan Apochromatic 63×/NA 1.4 objective. The images were processed using ImageJ, version 1.51.

HCT116 cells [2] = test: Apoptosis detection via flow cytometry (Annexin V-FITC/PI); assay type: cell-based, human; conditions: HCT116, 48 h, vs untreated or DMSO
Description: Double labeling with annexin V-FITC and propidium iodide dyes was used to detect cells going through apoptotic events, using a flow cytometer in order to obtain insights into the mechanism by which compounds 6, 7, and 13 generate antiproliferative activity against colorectal carcinoma cells. For that, HCT116 cells were exposed to each compound for 48 h.
To evaluate apoptotic cell death, the “Annexin V-FITC Apoptosis Detection Kit” (eBioscience, Vienna, Austria) was used according to the manufacturer’s instructions. Briefly, 1.2 × 10^5 cells/well were seeded into 6-well plates, and 24 h later, cells were treated with compounds 6, 7, and 13. After 48 h, floating and adherent cells were collected, pelleted via centrifugation (1000 rpm, 5 min), and suspended in binding buffer. Annexin V-FITC was added and incubated for 10 min, protected from light. Cells were washed and resuspended in binding buffer, and 20 μg/mL of propidium iodide (PI) was added. Fluorescence was assessed using the BD Accuri™ C6 Plus flow cytometer (BD Biosciences, Qume Drive, San Jose, CA, USA), and the data were analyzed with the BD Accuri TM C6 Plus software (version 1.0.27.1, San Jose, CA, USA). At least 20,000 events per sample were collected.

HCT116 (HCT116 p53+/+) = test: SRB growth inhibition assay, colorectal carcinoma cells; assay type: cell-based; conditions: Homo sapiens, HCT-116
Description: as §2, §3, §1

HPAEpiC = test: SRB growth inhibition assay, non-tumor pulmonary alveolar epithelial cells; assay type: cell-based; conditions: Homo sapiens, Epithelial cell, 48 h
Description: as §2, §3, §1

- SI, selective index (GI50 of HCT116 p53−/−/GI50 of HCT116 p53+/+) (HCT116 p53−/−): 0.40
- GI50 (HCT116 p53−/−; Homo sapiens, HCT-116, Table 2, 48 h): 1.3 ± 0.09 µM
- GI50 (A375-C5): 32.1 ± 1.27 µM
- GI50 (MCF-7): > 75 µM
- GI50 (HCT116 (HCT116 p53+/+); SRB, 48 h, read-out: GI50 HCT116): 3.26 ± 1.39 µM
- GI50 (HCT116 (HCT116 p53+/+); Table 2, 48 h, read-out: GI50 HCT116 p53+/+): 3.26 ± 1.39 µM
SMILES: CCCc1c(OCCNC(=O)/C=C/c2cc(OC)c(OC)c(OC)c2)ccc(C(=O)/C=C/c2cc(OC)c(OC)c(OC)c2)c1O [Compound 7, (E)-N-(2-(3-hydroxy-2-propyl-4-((E)-3-(3,4,5-trimethoxyphenyl)acryloyl)phenoxy)ethyl)-3-(3,4,5-trimethoxyphenyl)acrylamide]
- Mitotic index (MI) (HCT116 cells [1]; at GI50 (3.26 µM), untreated 12.68 ± 1.98%): 22.76 ± 4.30%
- Accumulation of bright and rounded (mitotic) cells (HCT116 cells [1]; phase contrast microscopy): accumulation of bright and rounded cells
- Apoptosis induction (Annexin V-positive cells) (HCT116 cells [2]): induces apoptotic tumor cell death
- GI50 (HPAEpiC): 57.2 ± 8.68 µM
